Assay results reported in patent US11666580B2, “Mechanism of resistance to bet bromodomain inhibitors” (Dana-Farber Cancer Institute, Inc., priority 2015, dated 2023).
Read-outs that look alike come from different tables or passages of the source.

How the values were obtained:
[1] = tested on: tumors derived from MDA-MB-231; assay: Xenograft assay, MDA-MB-231; format: in vivo, mice; settings: two weeks of JQ1, 50 mg/kg daily
Description: For xenograft assays 5-6-weeks old female CrTac:NCr-Foxn1^nu and NOD.Cg-Prkdc^scid Il2rg^tm1Sug/JicTac mice were purchased from Taconic. Tumors were induced by bilateral orthotopic mammary fat pad injection of 1×10^6 cells in 50% Matrigel (BD Biosciences) in DMEM/F12 or Medium 171 (except for IDC50-X cells, which were injected with 3% FBS and 4 mg/ml collagen gel in Medium 171). Animal experiments were conducted following protocol 11-023 approved by the Dana-Farber Cancer Institute Animal Care and Use Committee.

SUM159R cells = assay: Cell growth assay (viable cell numbers); format: cell-based, human; settings: high concentrations (up to 20 μM) of JQ1
Description: (§1) Cell viability and growth assays (FIGS. 1A-1B, FIGS. 3A-3E, 3G, FIGS. 5D-5F, FIGS. 6C, 6E, 6I, FIG. 7A, FIG. 10D, FIGS. 14A-14C), cycle, apoptosis, and MDR assays were performed in triplicates and repeated 2-3 times. For cell proliferation assays, cells were plated at 500 cells per well in 96-well plates and treated the next day with inhibitors, DMSO or doxycycline (500 ng). Cells were cultured at 37° C. with 5% CO2 in the media described-above, and cell viability was measured using CellTiter-Glo three days after treatments. For cell growth assays, cells were plated at 5000 (SUM159) or 20000 (SUM149) cells per well in 6-well plates and treated the next day with inhibitors. Cells were counted every three days by cell counter. Cellular apoptosis was analyzed with an APC AnnexinV/7ADD Apoptosis Detection kit (BD Pharmingen). AnnexinV/7AAD assessments and cell cycle graphics were generated using FlowJo software V7.6.1 for Windows (Tree Star). Senescence Beta-gal staining was performed using Senescence β-Galactosidase staining kit from Cell signaling. Briefly, after JQ1 treatment (500 nM) for 72 h, SUM159 and MDA-MB-231 cells were fixed by Fixative Solution for 15 min, followed by β-Galactosidase solution incubation overnight at 37° C. The staining was checked under microscope for the development of blue color. […] Briefly, SUM159 and SUM159R cells were treated with JQ1 or DMSO for 30 min in SUM medium. Verapamil was used as a positive control at 1:1000 dilution.

SUM149 cells = assay: Cell growth assay (viable cell numbers); format: cell-based, human; settings: low (0.5 μM) and high (2.0 μM) doses, 6 days
Description: as §1

SUM149R cells = assay: Cell growth assay (viable cell numbers); format: cell-based, human; settings: high concentrations (up to 20 μM) of JQ1
Description: as §1

SUM159 cells [2] = assay: Cell growth assay (viable cell numbers); format: cell-based, human; settings: low (0.5 μM) and high (2.0 μM) doses, 6 days
Description: as §1

SUM159 cells [3] = assay: Cell cycle analysis of SUM159 cells synchronized with nocodazole in G2/M; format: cell-based, human
Description: Cell cycle analysis was performed 72 hr after JQ1 treatment or BRD4 downregulation with doxycycline using propidium iodide (PI) staining. Cells were resuspended in 1 ml of growth medium supplemented with 2 μg/ml PI (Life Technologies) as final concentration. After 60 min at 37° C. in the dark, analysis was performed on a FACS AriaII cytometer (BD Biosciences). The cell cycle was plotted as histogram after excluding doublets. Cell synchronization Procedure. SUM159 cells were treated with nocodazole (200 ng/ml) for 12 h and then cells were tapped to detach from the plates. After washing twice with PBS, cells were replated with or without JQ1 in collagen coated plates. Cells were collected at 0, 3, 6, 12 h time point for FACS and immunoblot analysis.

[4] = molecular target: T1, BRD4-MED1 association in SUM159 cells (Homo sapiens, UniProt O60885); assay: BRD4 immunoprecipitation followed by immunoblot for MED1, resistant cells; format: cell-based; design: Observations from RIME data were pursued by BRD4 immunoprecipitation followed by immunoblot analysis for MED1 and BRD3; endogenous in cells; host or cells: SUM159 and SUM159R cells (nuclear extracts); settings: resistant cells
Description: Cells were lysed five days after transfection with siRNAs in RIPA buffer. Proteins were resolved in SDS-polyacrylamide gels (4%-12%) and transferred to PVDF membranes by using a Tris-glycine buffer system. […] Cells were incubated on ice for 15 min and gently vortexed every 5 min. […] After centrifugation of the lysates at 14 g for 10 min at 4° C., supernatant was diluted with 0.6 ml buffer A, and added NP-40 to final 0.5% and treated with DNase I. The samples were then incubated at 4° C. overnight with BRD4 or Flag antibodies at 1:100 dilution and immunoprecipitates were collected on Dynabeads Protein G for 2 hr. Beads were washed with buffer B containing 150 mM NaCl and 0.5% NP-40 three times and then resuspended in gel loading buffer. Immunoblotting and immunoprecipitation experiments were repeated 2-3 times.

[5] = molecular target: T1, BRD4-MED1 association in SUM159 cells; settings: sensitive cells
Description: Cells were lysed five days after transfection with siRNAs in RIPA buffer. Proteins were resolved in SDS-polyacrylamide gels (4%-12%) and transferred to PVDF membranes by using a Tris-glycine buffer system. Membranes were blocked with 5% milk powder in 0.1% Tween20 in PBS (PBS-T) for 1 hr at room temperature followed by incubation with primary antibodies at 1:1000 dilution in 2.5% milk PBS-T. For immunoprecipitation, nuclear extracts were prepared as follow: 10×10^6 cells were resuspended in 5 ml Buffer A: 10 mM Tris pH 7.9, 1.5 mM MgCl2, 10 mM KCl, 0.05% NP-40, 1 mM DTT, and protease and phosphatase inhibitors. Cells were incubated on ice for 15 min and gently vortexed every 5 min. After centrifugation at 2,000 g for 5 min, pellets were suspended in 0.3 ml buffer B (20 mM Tris pH 7.9, 25% glycerol, 0.42 M NaCl, 1.5 mM MgCl2, 1 mM KCl, 0.5% NP40, 0.2 mM EDTA, 1 mM DTT, and protease and phosphatase inhibitors) and incubated for 5 min on ice. After centrifugation of the lysates at 14 g for 10 min at 4° C., supernatant was diluted with 0.6 ml buffer A, and added NP-40 to final 0.5% and treated with DNase I. The samples were then incubated at 4° C. overnight with BRD4 or Flag antibodies at 1:100 dilution and immunoprecipitates were collected on Dynabeads Protein G for 2 hr. […]

[6] = molecular target: chromatin-bound BRD4 in SUM159 cells (Homo sapiens, UniProt O60885)
Description: Chem-seq was performed essentially as described^27. ChIP-seq: SUM159 and SUM159R cells (4×10^7) were grown in SUM Medium. The media were then removed and replaced with media containing 1% formaldehyde (EM grade; tebu-bio) and crosslinked for 8 min. Crosslinking was quenched by adding glycine to a final concentration of 0.2 M. The cells were washed with ice-cold PBS, harvested in PBS, and the cell pellet was washed with PBS. The nuclear fraction was extracted by first resuspending the pellet in 10 ml of LB1 buffer (50 mM HEPES-KOH [pH 7.5], 140 mM NaCl, 1mMEDTA, 10% glycerol, 0.5% NP-40 or Igepal CA-630, and 0.25% Triton X-100) for 10 min at 4° C. Cells were pelleted, resuspended in 10 ml of LB2 buffer (10 mM Tris-HCL [pH 8.0], 200 mM NaCl, 1 mM EDTA, and 0.5 mM EGTA), and mixed for 5 min. Cells were pelleted and resuspended in 300 μl of LB3 buffer (10 mM Tris-HCl [pH 8], 100 mM NaCl, 1 mM EDTA, 0.5 mM EGTA, 0.1% Na-deoxycholate, and 0.5% N-lauroylsarcosine) and sonicated in a covaris sonicator for 10 min. A total of 30 μl of 10% Triton X-100 was added, and lysate was centrifuged for 10 min at 20,000 rcf to purify the debris. The supernatant was then incubated with 100 μl of magnetic beads (Life Technologies) prebound with 20 μg BRD4 antibody (Bethyl, A301-985A), and immunoprecipitation (IP) was conducted overnight in the cold room. The beads were washed ten times in 1 ml of RIPA buffer and twice in 100 mM ammonium hydrogen carbonate (AMBIC) solution. DNA was eluted in elution buffer (50 mM Tris-HCl pH 8, 10 mM EDTA, and 1% SDS). Cross-links were reversed overnight at 65° C. RNA and protein were digested with 0.2 mg/mL RNase A for 2 hr followed by 0.2 mg/mL Proteinase K for 1 hr. DNA was purified with phenol chloroform extraction and ethanol precipitation. Libraries for Illumina sequencing were prepared following the Rubicon ThruPLEX-FD kit for 10-12 cycles.

## Cc1sc2c(c1C)C(c1ccc(Cl)cc1)=N[C@@H](CC(=O)OC(C)(C)C)c1nnc(C)n1-2 [JQ1]
[1]
  Tumor growth: efficiently inhibited the growth of established tumors
SUM159R cells
  Proliferation: continue to proliferate linearly over time
SUM149 cells
  Proliferation: severely impaired
SUM149R cells
  Proliferation: continue to proliferate linearly over time
SUM159 cells [2]
  Proliferation: severely impaired
SUM159 cells [3]; JQ1 (500 nM) added 3 hours after release
  Cell cycle after release from G2/M: less pronounced effects
SUM159 cells [3]; JQ1 (500 nM) administered 1 hour before release
  Cell cycle after release from G2/M: arrested in early G1 with high cyclin D1 levels
[4]
  Association of BRD4 with MED1: had no such effect
[5]
  Association of BRD4 with MED1: efficiently displaced BRD4 from MED1
[6]; SUM159R, JQ1 exposure
  BRD4 occupancy at Chem-seq-defined SE regions: retain chromatin-bound BRD4
[6]; SUM159R, following JQ1 treatment
  Displacement of BRD4 from chromatin: not displaced from chromatin
[6]; resistant cells
  Effect on H3K27ac or global transcription: fails to influence
